# Data reported in patent US20240376076A1, “INHIBITORS TARGETING UBIQUITIN SPECIFIC PROTEASE 7 (USP7)” (Dana-Farber Cancer Institute, Inc., priority 2021, published 2024).
# Where a name gives a salt, the structure may show the parent alone.
# How the values were obtained:
# [1] = molecular target: T1, USP7, Active human recombinant protein (Homo sapiens, UniProt Q93009); experiment: USP7 assay (Ubiquitin-Rhodamine 110 enzymatic assay); type: biochemical; details: read-out: IC50
# T1 construct: purchased CP Lot; 20200225001
# Experimental: Enzymatic Assays with Exemplary USP7 Irreversible Inhibitors
# (§1) ND refers to not disclosed.
# USP7, Active human recombinant protein (CP, Lot. 20200225001), Ubiquitin-Rhodamine 110 (Rh110) (BostonBiochem, Cat. No. U-555), DMSO (Sigma, Cat. N34869), DTT (Sangon Biotech, Cat. No. A620058-0005), […] Tris pH 8.0 (Sigma, Cat. No. T2694-1L), Tween-20 (Sigma, Cat. No. P2287-100ML), EDTA (Invitrogen, Cat. No. 15575020, BSA (Sigma, Cat. No. B2064-100G), 384-well assay plate (Corning, Cat. No. 3573), Echo Qualified 384-Well Polypropylene Microplate 2.0, Clear, Flat Bottom (LABCYTE, Cat. No. 001-14555).
# Dilute the compounds to 400× of the final desired highest inhibitor concentration in reaction by 100% DMSO. For all compounds, transfer the compounds to one well in a 384-well Echo plate and serially dilute the compound by 3-fold dilution of 100% DMSO in the next well and so forth for a total of 10 concentrations by Precision. Add 30 μL of 100% DMSO to two empty wells for no compound control and no enzyme control in the same 384-well Echo plate. Make the plate as a source plate.
# For USP7 assay, transfer 50 nL of each well from the source plate to a 384-well assay plate (OptiPlate TM-384 F black assay plates) by Echo 550 Liquid Handler.
# Added appropriate amount of USP7 in 1× assay Buffer to prepare 2× enzyme solution (USP7 final concentration: 0.05 nM). Added appropriate amount of Ubiquitin-Rhodamine 110 in 1× assay Buffer to prepare 2× substrate solution (Ubiquitin-Rhodamine 110 final concentration: 190 nM). Added 10 μL of 2× enzyme solution to each reaction well of the 384-well assay plate, except for control wells without enzyme (add 10 μL of 1× Assay Buffer instead as for low control). […] Transferred 2× substrate solution to the assay plate. Added 10 μL of 2× substrate solution to each well of the 384-well assay plate to start reaction. Centrifuged at 1000 rpm for 1 min. Read the plate kinetically on SpectraMax Paradigm for 20 min with excitation at 485 nm and emission at 535 nm. Copied raw data (slope) from Reader to obtain inhibition values in Excel using equation (1): […]
# Max signal was obtained from the action of Enzyme and Substrate. Min signal was obtained from the Substrate only. To fit the data in XLFit excel add-in version 5.4.0.8 to obtain IC50 values used equation (2): […]
# Y is % inhibition and X is compound concentration.
# [2] = mouse liver microsomal stability (Microsome Assay Protocol); type: in vitro ADME; details: pH 7.4; mouse liver microsomes, NADPH, 37° C.; read-out: MLM t1/2, min
# Experimental: as §1
# • 1. Buffer A: 1.0 L of 0.1 M monobasic Potassium Phosphate buffer containing 1.0 mM EDTA Buffer B: 1.0 L of 0.1 M Dibasic Potassium Phosphate buffer containing 1.0 mM EDTA • Buffer C: 0.1 M Potassium Phosphate buffer, 1.0 mM EDTA, pH 7.4 by titrating 700 mL of buffer B with buffer A while monitoring with a pH meter. • 2. Reference compound (Ketanserin) and test compounds spiking solution: • 500 μM spiking solution: added 10 μL of 10 mM DMSO stock solution into 190 μL ACN. • 1.5 μM spiking solution in microsomes (0.75 mg/mL): added 1.5 μL of 500 μM spiking solution and 18.75 μL of 20 mg/mL liver microsomes into 479.75 μL of Buffer C on ice. • 3. Prepared NADPH stock solution (6 mM) by dissolving NADPH into buffer C. Dispensed 30 μL of 1.5 μM spiking solution containing 0.75 mg/mL microsomes solution to the assay plates designated for different time points (0-, 5-, 15-, 30-, 45-min) on ice. For 0-min, added 135 μL of ACN containing IS to the wells of 0-min plate and then added 15 μL of NADPH stock solution (6 mM). Pre-incubated all other plates at 37° C. for 5 minutes. Added 15 μL of NADPH stock solution (6 mM) to the plates to start the reaction and timing. At 5-min, 15-min, 30-min, and 45-min, added 135 μL of ACN containing IS to the wells of corresponding plates, respectively, to stop the reaction. After quenching, shook the plates at the vibrator (IKA, MTS 2/4) for 10 min (600 rpm/min) and then centrifuged at 5594 g for 15 min (Thermo Multifuge×3R). Transferred 50 μL of the supernatant from each well into a 96-well sample plate containing 50 μL of ultra pure water (Millipore, ZMQS50F01) for LC/MS analysis.
# T1 sequence (Q93009 whole entry): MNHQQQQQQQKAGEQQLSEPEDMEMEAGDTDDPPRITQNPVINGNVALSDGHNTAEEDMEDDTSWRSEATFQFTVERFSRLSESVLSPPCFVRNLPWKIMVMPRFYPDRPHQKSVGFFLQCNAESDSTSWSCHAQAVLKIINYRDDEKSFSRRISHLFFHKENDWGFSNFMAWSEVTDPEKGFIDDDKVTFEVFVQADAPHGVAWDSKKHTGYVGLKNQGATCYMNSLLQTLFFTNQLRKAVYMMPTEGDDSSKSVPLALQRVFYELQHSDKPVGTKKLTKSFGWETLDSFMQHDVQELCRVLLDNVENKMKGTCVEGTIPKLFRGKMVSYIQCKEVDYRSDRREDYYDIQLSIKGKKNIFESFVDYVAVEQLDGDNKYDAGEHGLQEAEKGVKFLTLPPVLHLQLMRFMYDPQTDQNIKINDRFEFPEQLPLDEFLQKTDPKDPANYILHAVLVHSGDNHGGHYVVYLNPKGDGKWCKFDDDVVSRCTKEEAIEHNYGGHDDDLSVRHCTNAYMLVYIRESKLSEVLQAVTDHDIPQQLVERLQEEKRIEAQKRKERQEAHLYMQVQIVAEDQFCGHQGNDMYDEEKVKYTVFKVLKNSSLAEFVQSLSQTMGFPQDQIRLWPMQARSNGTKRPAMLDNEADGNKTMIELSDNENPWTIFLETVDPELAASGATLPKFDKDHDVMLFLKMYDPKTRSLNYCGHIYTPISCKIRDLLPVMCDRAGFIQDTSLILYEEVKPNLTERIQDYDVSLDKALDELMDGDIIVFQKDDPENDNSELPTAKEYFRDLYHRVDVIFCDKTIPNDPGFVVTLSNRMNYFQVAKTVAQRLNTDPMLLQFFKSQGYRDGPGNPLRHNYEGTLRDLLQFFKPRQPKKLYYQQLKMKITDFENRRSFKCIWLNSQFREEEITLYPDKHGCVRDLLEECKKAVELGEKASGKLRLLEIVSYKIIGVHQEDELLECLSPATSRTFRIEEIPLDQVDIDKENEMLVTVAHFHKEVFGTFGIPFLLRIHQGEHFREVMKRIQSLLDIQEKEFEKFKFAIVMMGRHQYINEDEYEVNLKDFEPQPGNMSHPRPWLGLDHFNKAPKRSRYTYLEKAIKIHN
Compound,IC50 [1],half-life at 1 µM [2]
"CN1CCN(CCC(=O)Nc2ccc3c(=O)n(CC4(O)CCN(C(=O)C(CCCNC(=O)c5ccc6c(Cl)cc(C7(F)CC7)nc6c5)Cc5ccccc5)CC4)cnc3c2)CC1 (stereo not drawn) [Compound 21, N-(4-benzyl-5-(4-hydroxy-4-((7-(3-(4-methylpiperazin-1-yl)propanamido)-4-oxoquinazolin-3(4H)-yl)methyl)piperidin-1-yl)-5-oxopentyl)-4-chloro-2-(1-fluorocyclopropyl)quinoline-7-carboxamide]",> 1 µM,18.5 min
"CN(C)CCC(=O)Nc1ccc2c(=O)n(CC3(O)CCN(C(=O)c4cn(CCNC(=O)c5ccc6c(Cl)ccnc6c5)nc4-c4ccccc4)CC3)cnc2c1 [Compound 55, 4-chloro-N-(2-(4-(4-((7-(3-(dimethylamino)propanamido)-4-oxoquinazolin-3(4H)-yl)methyl)-4-hydroxypiperidine-1-carbonyl)-3-phenyl-1H-pyrazol-1-yl)ethyl)quinoline-7-carboxamide]",> 1 µM,35.6 min
CNc1cc(Cl)c2ccc(C(=O)NCCCC(Cc3ccccc3)C(=O)N3CCC(O)(Cn4cnc5cc(NC(=O)CCN(C)C)ccc5c4=O)CC3)cc2n1 (stereo not drawn) [Compound 69],> 1 µM,4.5 min
Cc1cc(Cl)c2ccc(C(=O)N3CCN(CC(=O)N4CCC(O)(Cn5cnc6cc(Cl)ccc6c5=O)CC4)CC3)cc2n1 [Compound 80],> 1 µM,5.41 min
"CN(C)CC(=O)Nc1ccc2c(=O)n(CC3(O)CCN(C(=O)C(CCCNC(=O)c4ccc5c(Cl)c6c(nc5c4)CN(C)C6)Cc4ccccc4)CC3)cnc2c1 (stereo not drawn) [Compound 31, N-(4-benzyl-5-(4-((7-(2-(dimethylamino)acetamido)-4-oxoquinazolin-3(4H)-yl)methyl)-4-hydroxypiperidin-1-yl)-5-oxopentyl)-9-chloro-2-methyl-2,3-dihydro-1H-pyrrolo[3,4-b]quinoline-6-carboxamide]",0.1 to 1 µM,2.9 min
NC(=O)c1cnc2cc(C(=O)NCCCC(Cn3ccc(F)n3)C(=O)N3CCC(O)(Cn4cnc5ccccc5c4=O)CC3)ccc2c1Cl (stereo not drawn),0.02 to 0.1 µM,6.51 min
O=C(CN1CCN(C(=O)c2ccc3c(Cl)c4c(nc3c2)CCCC4)CC1)N1CCC(O)(Cn2cnc3cc(Cl)ccc3c2=O)CC1,> 1 µM,2.31 min
CN(C)CCC(=O)Nc1ccc2c(=O)n(CC3(O)CCN(C(=O)C(CCCNC(=O)c4ccc5c(Cl)ccnc5c4)Cc4ccc(F)cc4)CC3)cnc2c1 (stereo not drawn) [Compound 81],0.02 to 0.1 µM,11.8 min
CN(C)CCCOc1ccc2c(=O)n(CC3(O)CCN(C(=O)[C@H](CCCNC(=O)c4ccc5c(Cl)c6c(nc5c4)CCNC6=O)Cc4ccccc4)CC3)cnc2c1,0.1 to 1 µM,10.2 min
CN(C)CCCOc1ccc2c(=O)n(CC3(O)CCN(C(=O)C(CCCNC(=O)c4ccc5c(Cl)c6c(nc5c4)CCN(C)C6=O)Cc4ccccc4)CC3)cnc2c1 (stereo not drawn),0.02 to 0.1 µM,14.4 min
CN1CCN(CCC(=O)Nc2ccc3c(=O)n(CC4(O)CCN(C(=O)C(CCCNC(=O)c5ccc6c(Cl)cc(-c7ccc(F)cc7)nc6c5)Cc5ccccc5)CC4)cnc3c2)CC1 (stereo not drawn),0.1 to 1 µM,22.7 min
"CN(C)CCC(=O)Nc1ccc2c(=O)n(CC3(O)CCN(C(=O)c4cn(CCNC(=O)c5ccc6c(Cl)ccnc6c5)nc4C4CC4)CC3)cnc2c1 [Compound 56, 4-chloro-N-(2-(3-cyclopropyl-4-(4-((7-(3-(dimethylamino)propanamido)-4-oxoquinazolin-3(4H)-yl)methyl)-4-hydroxypiperidine-1-carbonyl)-1H-pyrazol-1-yl)ethyl)quinoline-7-carboxamide]",> 1 µM,95.9 min
CN(C)CCC(=O)Nc1ccc2c(=O)n(CC3(O)CCN(C(=O)C(CCCNC(=O)c4ccc5c(Cl)cc(C(N)=O)nc5c4)Cc4ccccc4)CC3)cnc2c1 (stereo not drawn) [Compound 71],0.1 to 1 µM,54.6 min
CN(C)CCOc1cc(F)c2c(=O)n(CC3(O)CCN(C(=O)[C@H](CCCNC(=O)c4ccc5c(Cl)cc(C6CC6)nc5c4)Cc4ccccc4)CC3)cnc2c1 [Compound 118],0.1 to 1 µM,–
"CN1CCN(CCC(=O)Nc2ccc3c(=O)n(CC4(O)CCN(C(=O)C(CCCNC(=O)c5ccc6c(Cl)cc(-c7cccc(CN)c7)nc6c5)Cc5ccccc5)CC4)cnc3c2)CC1 (stereo not drawn) [Compound 17, 2-(3-(aminomethyl)phenyl)-N-(4-benzyl-5-(4-hydroxy-4-((7-(3-(4-methylpiperazin-1-yl)propanamido)-4-oxoquinazolin-3(4H)-yl)methyl)piperidin-1-yl)-5-oxopentyl)-4-chloroquinoline-7-carboxamide hydrochloride]",0.02 to 0.1 µM,–

# The remaining lines, values ahead:
IC50 [1],half-life at 1 µM [2],Compound
< 0.02 µM,5.89 min,CC(C)c1cc(Cl)c2ccc(C(=O)NCCC[C@H](Cc3ccccc3)C(=O)N3CCC(O)(Cn4cnc5cc(OCCCN(C)C)ccc5c4=O)CC3)cc2n1 [Compound 120]
0.02 to 0.1 µM,106 min,CN(C)CCCOc1ccc2c(=O)n(CC3(O)CCN(C(=O)C(Cn4ccc(F)n4)N(C)CCNC(=O)c4ccc5c(Cl)c(C(N)=O)cnc5c4)CC3)cnc2c1 (stereo not drawn)
< 0.02 µM,1.67 min,CN(C)CCCOc1ccc2c(=O)n(CC3(O)CCN(C(=O)[C@H](CCCNC(=O)c4ccc5c(Cl)c(C#N)cnc5c4)Cc4ccccc4)CC3)cnc2c1
< 0.02 µM,31.9 min,CN(C)CCCOc1ccc2c(=O)n(CC3(O)CCN(C(=O)[C@H](CCCNC(=O)c4ccc5c(Cl)c(C6CC6)cnc5c4)Cc4ccccc4)CC3)cnc2c1
< 0.02 µM,11.3 min,CN(C)CCCOc1ccc2c(=O)n(CC3(O)CCN(C(=O)C(CCCNC(=O)c4ccc5c(Cl)c6c(nc5c4)CN(C)C6=O)Cc4ccccc4)CC3)cnc2c1 (stereo not drawn)
< 0.02 µM,22.1 min,CN(C)CCCOc1cc2ncn(CC3(O)CCN(C(=O)[C@@H](CCCNC(=O)c4ccc5c(Cl)cc(C6CC6)nc5c4)Cc4ccccc4)CC3)c(=O)c2cc1F
< 0.02 µM,65.5 min,CN(C)CCCOc1ccc2c(=O)n(CC3(O)CCN(C(=O)C(Cc4ccccc4)NCCNC(=O)c4ccc5c(Cl)c(C(N)=O)cnc5c4)CC3)cnc2c1 (stereo not drawn)
< 0.02 µM,152 min,CN(C)CCCOc1ccc2c(=O)n(CC3(O)CCN(C(=O)C(CCCNC(=O)c4ccc5c(Cl)c(C(=O)NC6CC6)cnc5c4)Cn4ccc(F)n4)CC3)cnc2c1 (stereo not drawn)
< 0.02 µM,2.1 min,"CC(=O)N1CCc2nc3cc(C(=O)NCCCC(Cc4ccccc4)C(=O)N4CCC(O)(Cn5cnc6cc(NC(=O)CN(C)C)ccc6c5=O)CC4)ccc3c(Cl)c2C1 (stereo not drawn) [Compound 33, 2-acetyl-N-(4-benzyl-5-(4-((7-(2-(dimethylamino)acetamido)-4-oxoquinazolin-3(4H)-yl)methyl)-4-hydroxypiperidin-1-yl)-5-oxopentyl)-10-chloro-1,2,3,4-tetrahydrobenzo[b][1,6]naphthyridine-7-carboxamide]"
< 0.02 µM,18.6 min,CN(C)CCCNc1cc2ncn(CC3(O)CCN(C(=O)[C@@H](CCCNC(=O)c4ccc5c(Cl)cc(C6CC6)nc5c4)Cc4ccccc4)CC3)c(=O)c2cc1F
